# According to EP4385508A1, “FURAN FATTY ACIDS FOR ENHANCING MUSCLE MASS” (Centre de Coopération Internationale en Recherche …, priority 2022, dated 2024):
# What was measured:
# myogenin = test: Myogenin protein level by Western blot in differentiating C2C12 cells; format: cell-based, Mouse; settings: 1, 10 and 50 µM, differentiation medium
# Protocol: (§1) Mouse myoblasts of the C2C12 cell line (ATCC) were seeded at a plating density of 7000 cells/cm2 in 6-well plates. They were grown in DMEM high glucose (4.5g/l) supplemented with gentamycin (50 µg/mL), amphotericin (50 µg/mL), and fetal calf serum (10%). Terminal differentiation was induced at cell confluence by lowering the medium serum concentration (0.5%).
# (§2) When indicated, FuFA-F2 was added to the culture medium at the indicated concentration. For the differentiation studies, FuFA-F2 was added at the confluence at the same time as the change in media condition. Three doses of FuFA-F2 were studied at a final concentration of 1, 10, or 50 µM. Human insulin was used at a concentration of 100 nM.
# (§3) Protein levels were assessed by Western blotting. Total proteins were measured using the Bio-Rad protein assay (Hercules, CA, USA) according to the manufacturer's instructions. Total proteins were lysed in RIPA buffer (20mM Tris, 150mM NaCl, 1mM EDTA, 1% NP40, pH 7.5 + complete cocktail protease inhibitors + Pierce phosphatase inhibitors tablet). 40 µg of cell extracts were loaded and blotted onto a nitrocellulose membrane. The membranes were washed, blocked with 5% nonfat milk and incubated in primary antibody overnight at 4°C. […]
# Akt (Ser473) = test: Akt phosphorylation by Western blot in C2C12 myotubes; format: cell-based, Mouse; settings: FuFA-F2 together with insulin; 3-day pretreatment, 2 hours low-glucose, 30 minutes
# Protocol: as §1, §2, §3
# Citrate synthase (CS) = test: Citrate synthase activity in quadriceps of supplemented C57Bl6 mice; format: in vivo; settings: 20mg/kg oral gavage
# Protocol: Male C57Bl/6J wild-type mice were obtained from Janvier at 12 weeks of age and were randomly assigned to one of the two groups based on body weight. Mice were housed 2 per cage and maintained on a 12-hour light/dark cycle (lights on at 7:30 pm). Food and water were provided ad libitum. Enrichment (nesting cotton squares) was provided in each cage. Mice were treated once daily by oral gavage with vehicle (50% PEG-400, 0.5% Tween 80, and 49.5% distilled water) or FuFA-F2 (20 mg/kg). All animal experiments were performed according to European directives (86/609/CEE and 2010/63/CEE) and approved by the regional animal experimentation ethics committe: Région Languedoc-Roussillon (No36). […]
# Mitochondrial respiratory complex activities were determined as previously described (Casas et al., 2008, PloS ONE, Vol. 3(6) : e2501). Citrate synthase (CS) activity was measured according to Srere (Srere et al., 1967, Science, Vol. 158(3803) : 936-937) by following the color formation of 5-thio-2-nitrobenzoic acid at 412 nm. The enzymatic activity of complex IV (cytochrome c oxidase) was measured according to Wharton and Tzagoloff (Wharton et al., 1967, Methods in Enzymology, Vol. 10, Edn Elsevier BV, Amsterdam, The Netherlands), a spectrophotometer following the oxidation of reduced cytochrome c at 550 nm, pH 7.4, and 37 °C. […]
smiles,measurement,setting,value
CCCCCc1cc(C)c(CCCCCCCCC(=O)O)o1 [FuFA-F2],expression of myogenin,myogenin,no effect
same,insulin-induced phosphorylation of Akt,Akt (Ser473),did not alter
same,Citrate synthase (CS),Citrate synthase (CS),not modified
